Source: ChEMBL document CHEMBL5385865, “Discovery and optimization of 2-(trifluoromethyl)benzimidazole derivatives as novel ferroptosis inducers in vitro and in vivo” (Eur J Med Chem, 2023)
The source made the active and inactive calls. The rule behind the calls is not given here.

What was measured:
[1] = molecular target: T1, Phospholipid hydroperoxide glutathione peroxidase GPX4 (Homo sapiens) (UniProt P36969); assay: Inhibition of GPX4 in human HT-1080 cells at 10 to 40 uM incubated for 12 hrs; type: cell-based; conditions: dose 10-40 µM
T1 sequence (whole entry): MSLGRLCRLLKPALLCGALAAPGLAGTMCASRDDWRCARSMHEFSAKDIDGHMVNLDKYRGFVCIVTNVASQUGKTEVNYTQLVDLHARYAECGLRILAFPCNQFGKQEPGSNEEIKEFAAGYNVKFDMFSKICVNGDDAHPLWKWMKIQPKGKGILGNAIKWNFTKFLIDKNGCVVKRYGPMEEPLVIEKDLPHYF

HepG2 [2] = assay: Antitumor activity against human HepG2 cells xenografted in BALB/c nude mouse assessed as tumor growth inhibition at 15 mg/kg, ip administered every other day for 21 days by electronic caliper analysis relative to control; type: functional; conditions: HepG2, 504 h, time 21 day, read-out: TGI
HepG2 [3] = assay: Inhibition of cell proliferation in human HepG2 cells xenografted in BALB/c nude mouse at 15 to 30 mg/kg, ip administered every other day for 21 days by Ki67 staining based IHC analysis; type: functional, organism-based; conditions: dose 15-30 mg/kg, time 21.0 day
[4] = Toxicity in BALB/c nude mouse xenografted with human HepG2 cells assessed as effect on serum ALT level at 15 to 30 mg/kg, ip administered every other day for 21 days; type: organism-based; conditions: in vivo, 504 h, dose 15-30 mg/kg, time 21 day
HT-1080 [5] = assay: Induction of ferroptosis in human HT-1080 cells assessed as cell death at 10 uM incubated for 24 hrs in presence of DFO by MTT assay; type: functional, cell-based
HT-1080 [6] = assay: Induction of ferroptosis in human HT-1080 cells assessed as increase in lipid ROS accumulation at 5 uM incubated for 10 hrs in presence of Fer-1 by BODIPY-C11 probe based confocal laser scanning microscopy; type: functional, cell-based
HT-1080 [7] = assay: Induction of ferroptosis in human HT-1080 cells assessed as cell death at 5 uM incubated for 24 hrs in presence of DFO by morphology based microscopy; type: functional
DU-145 = assay: Lethality in human DU-145 cells assessed as decrease in cell viability at 10 uM incubated for 48 hrs in presence of DFO by MTT assay; type: functional, cell-based
A-375 [8] = assay: Lethality in human A-375 cells assessed as decrease in cell viability at 10 uM incubated for 48 hrs in presence of Fer-1 by MTT assay; type: functional, cell-based
HT-1080 [9] = assay: Induction of ferroptosis in human HT-1080 cells assessed as increase in SLC7A11 mRNA level incubated for 18 hrs by qPCR analysis; type: functional, cell-based; conditions: dose 0.5-5 µM
HT-1080 [10] = assay: Lethality in human HT-1080 cells assessed as inhibition of cell viability incubated for 24 hrs by MTT assay; type: functional, cell-based; conditions: HT-1080, 24 h
HT-1080 [11] = assay: Induction of ferroptosis in human HT-1080 cells assessed as cell death at 5 uM incubated for 24 hrs in presence of Fer-1 by morphology based microscopy; type: functional
[12] = Toxicity in BALB/c nude mouse xenografted with human HepG2 cells assessed as effect on serum ALP level at 15 to 30 mg/kg, ip administered every other day for 21 days; type: organism-based; conditions: in vivo, 504 h, dose 15-30 mg/kg, time 21 day
[13] = Toxicity in BALB/c nude mouse xenografted with human HepG2 cells assessed as effect on serum AST level at 15 to 30 mg/kg, ip administered every other day for 21 days; type: organism-based; conditions: in vivo, 504 h, dose 15-30 mg/kg, time 21 day
HepG2 [14] = assay: Lethality in human HepG2 cells assessed as decrease in cell viability at 10 uM incubated for 48 hrs in presence of Fer-1 by MTT assay; type: functional, cell-based
HepG2 [15] = assay: Lethality in human HepG2 cells assessed as decrease in cell viability at 10 uM incubated for 48 hrs by MTT assay; type: functional, cell-based
[16] = Toxicity in BALB/c nude mouse xenografted with human HepG2 cells assessed as effect on serum UREA level at 15 to 30 mg/kg, ip administered every other day for 21 days; type: organism-based; conditions: in vivo, 504 h, dose 15-30 mg/kg, time 21 day
[17] = Toxicity in BALB/c nude mouse xenografted with human HepG2 cells assessed as effect on serum CK level at 15 to 30 mg/kg, ip administered every other day for 21 days; type: organism-based; conditions: in vivo, 504 h, dose 15-30 mg/kg, time 21 day
HepG2 [18] = assay: Antitumor activity against human HepG2 cells xenografted in BALB/c nude mouse assessed as tumor weight reduction administered intraperitoneally every other day for 21 days; type: functional; conditions: dose 15-30 mg/kg, route ip, time 21.0 day
[19] = Toxicity in human NCM460 cells upto 20 uM incubated for 48 hrs by MTT assay; type: cell-based; conditions: ncm460, 48 h
[20] = Metabolic stability in human liver microsomes assessed as half life at 1 uM in presence of NADPH by LC-MS analysis; type: ADME, Microsome
[21] = Toxicity in BALB/c nude mouse xenografted with human HepG2 cells assessed as effect on serum LDH level at 15 to 30 mg/kg, ip administered every other day for 21 days; type: organism-based; conditions: in vivo, 504 h, dose 15-30 mg/kg, time 21 day
A-375 [22] = assay: Lethality in human A-375 cells assessed as decrease in cell viability at 10 uM incubated for 48 hrs in presence of DFO by MTT assay; type: functional, cell-based
HT-1080 [23] = assay: Induction of ferroptosis in human HT-1080 cells assessed as shrinkage of mitochondria at 5 uM incubated for 24 hrs by TEM analysis; type: functional, cell-based
[24] = Toxicity in BALB/c nude mouse xenografted with human HepG2 cells assessed as histological change in heart at 15 to 30 mg/kg, ip administered every other day for 21 days by H and E staining based analysis; type: organism-based; conditions: in vivo, 504 h, dose 15-30 mg/kg, time 21 day
786-0 = assay: Lethality in human 786-0 cells assessed as decrease in cell viability at 10 uM incubated for 48 hrs by MTT assay; type: functional, cell-based
[25] = Toxicity in BALB/c nude mouse xenografted with human HepG2 cells assessed as effect on serum CREA level at 15 to 30 mg/kg, ip administered every other day for 21 days; type: organism-based; conditions: in vivo, 504 h, dose 15-30 mg/kg, time 21 day
MDA-MB-231 = assay: Lethality in human MDA-MB-231 cells assessed as inhibition of cell viability incubated for 24 hrs by MTT assay; type: functional, cell-based; conditions: MDA-MB-231, 24 h
[26] = Metabolic stability in rat liver microsomes assessed as intrinsic clearance measured per mg protein at 1 uM in presence of NADPH by LC-MS analysis; type: ADME, Microsome; conditions: read-out: CLH
HT-1080 [27] = assay: Induction of ferroptosis in human HT-1080 cells assessed as cell death at 5 uM incubated for 24 hrs in presence of beta-mercaptoethanol by MTT assay; type: functional, cell-based
[28] = Toxicity in human HEK293T cells upto 20 uM incubated for 48 hrs by MTT assay; type: cell-based; conditions: hek-293t
HepG2 [29] = assay: Lethality in human HepG2 cells assessed as inhibition of cell viability incubated for 24 hrs by MTT assay; type: functional, cell-based; conditions: HepG2, 24 h
HT-1080 [30] = assay: Induction of ferroptosis in human HT-1080 cells assessed as cell death at 5 uM incubated for 6 hrs in presence of ferric citrate by fluorescent microscopy; type: functional, cell-based
[31] = Toxicity in human L02 cells upto 20 uM incubated for 48 hrs by MTT assay; type: cell-based; conditions: l02, 48 h

With CN(C)S(=O)(=O)c1ccc(N2CCC(Cn3c(C(F)(F)F)nc4ccccc43)CC2)cc1 the inhibition [1] was “inactive”, the inhibition in vivo at 15 mg/kg (HepG2 [2]) was 47.6% and the inhibition (HepG2 [3]) was “Active”. The Activity [4] was “Non-Toxic”, the Activity (HT-1080 [5]) was “inactive” and the Activity (HT-1080 [6]) was “inactive”. The Activity (HT-1080 [7]) was “inactive”, the Activity (DU-145) was “inactive” and the Activity (A-375 [8]) was “inactive”. For the same molecule, the Activity (HT-1080 [9]) was “Dose-Dependent Effect”, the IC50 (HT-1080 [10]) was 1.26 µM and the Activity (HT-1080 [11]) was “inactive”. The Activity [12] was “Non-Toxic”, the Activity [13] was “Non-Toxic” and the Activity (HepG2 [14]) was “inactive”. For the same molecule, the Activity (HepG2 [15]) was “Active”, the Activity [16] was “Non-Toxic” and the Activity [17] was “Non-Toxic”. The Activity (HepG2 [18]) was “Dose-Dependent Effect”, the Activity [19] was “Non-Toxic” and the half-life at 1 µM [20] was 15.6 min. The Activity [21] was “Non-Toxic”, the Activity (A-375 [22]) was “inactive” and the Activity (HT-1080 [23]) was “Active”. For the same molecule, the Activity [24] was “Non-Toxic”, the Activity (786-0) was “Active” and the Activity [25] was “Non-Toxic”. For the same molecule, the IC50 (MDA-MB-231) was 4.34 µM, the microsomal CLint at 1 µM [26] was 133 µL/min/mg and the Activity (HT-1080 [27]) was “inactive”. For the same molecule, the Activity [28] was “Toxic”, the IC50 (HepG2 [29]) was 1.33 µM and the Activity (HT-1080 [30]) was “Active”. For the same molecule, the Activity [31] was “Non-Toxic”.
